These results are taken from patent US20050048067A1, “Peptides capable of modulating immune response” (priority 2001, published 2005).

Read-outs that look alike come from different tables or passages of the source.

For one test, the system named is PHA-stimulated PBMC. The test is described as follows: Radioactive proliferation assay, incorporation of 3H-thymidine, TIRC7-peptides. The following applies: PHA stimulation, 48 h, 3H-thymidine incorporation. Type of test: cell-based, human. As to the method: PBMC of healthy donors were isolated according to the Ficoll-Paque density centrifugation protocol. Samples of 50000 PBMC's/well were stimulated with PHA (1 μg/ml) and incubated for 48 h at 5% CO2, 37° C. in presence of TIRC7-peptides (see FIG. 4(B)) and controls (BSA) in a total volume of […]. Samples were run in triplicates on 96 well-microtiter-plates (MTP's). After 48 h 0.5 μCi ^3H-thymidine per well were added and the cells were reincubated for additional 18 h. Cells were harvested and lysed using a cell harvester and collected on nitrocellulose-filter-MTP's. Plates were dried at room temperature for 3 h. To enhance the radioactive signal produced by the samples a scintillation fluid was added and counts per minute were measured with a beta counter.
Background: Incorporation of labelled thymidine or its analogues reports DNA synthesis.

A further test deals with activated T-cells. The following applies: alloactivation in mixed lymphocyte culture (MLR) or mitogens, Utku et al., Immunity 1998, cited from earlier work.

As for “P4: TIRC7-derived peptide (FIG. 4(B)), the one of 6 without significant inhibition of proliferation (VEFQNKFYSGTGYK; listed as Homo sapiens)”, the “inhibition of proliferation of PHA-stimulated PBMC” value with PHA-stimulated PBMC (FIG. 5) is recorded as “except peptide P4 all TIRC7-peptides inhibited proliferation”; in the test on PHA-stimulated PBMC (FIG. 5, listed as SEQ ID NO: 11), “weaker if any activity”.

B1: TIRC7 protein: in vitro translated T-cell immune response cDNA 7 (TIRC7) protein (protein, UniProt Q13488 1-830, looked up)
V-type proton ATPase 116 kDa …: MGSMFRSEEVALVQLFLPTAAAYTCVSRLGELGLVEFRDLNASVSAFQRRFVVDVRRCEELEKTFTFLQEEVRRAGLVLPPPKGRLPAPPPRDLLRIQEETERLAQELRDVRGNQQALRAQLHQLQLHAAVLRQGHEPQLAAAHTDGASERTPLLQAPGGPHQDLRVNFVAGAVEPHKAPALERLLWRACRGFLIASFRELEQPLEHPVTGEPATWMTFLISYWGEQIGQKIRKITDCFHCHVFPFLQQEEARLGALQQLQQQSQELQEVLGETERFLSQVLGRVLQLLPPGQVQVHKMKAVYLALNQCSVSTTHKCLIAEAWCSVRDLPALQEALRDSSMEEGVSAVAHRIPCRDMPPTLIRTNRFTASFQGIVDAYGVGRYQEVNPAPYTIITFPFLFAVMFGDVGHGLLMFLFALAMVLAENRPAVKAAQNEIWQTFFRGRYLLLLMGLFSIYTGFIYNECFSRATSIFPSGWSVAAMANQSGWSDAFLAQHTMLTLDPNVTGVFLGPYPFGIDPIWSLAANHLSFLNSFKMKMSVILGVVHMAFGVVLGVFNHVHFGQRHRLLLETLPELTFLLGLFGYLVFLVIYKWLCVWAARAASAPSILIHFINMFLFSHSPSNRLLYPRQEVVQATLVVLALAMVPILLLGTPLHLLHRHRRRLRRRPADRQEENKAGLLDLPDASVNGWSSDEEKAGGLDDEEEAELVPSEVLMHQAIHTIEFCLGCVSNTASYLRLWALSLAHAQLSEVLWAMVMRIGLGLGREVGVAAVVLVPIFAAFAVMTVAILLVMEGLSAFLHALRLHWVEFQNKFYSGTGYKLSPFTFAATDD
modifications: in vitro translated
notes: in vitro translated T-cell immune response cDNA 7 (TIRC7) protein
With B1, the “suppression of proliferation of T-cells” value in the test on activated T-cells was “efficiently suppress in a dose dependent manner”; with activated T-cells (listed as protein TIRC7), “signifincantly suppressed”.
